Measurements published in paper PMC9929129, “Towards Translation of PqsR Inverse Agonists: From In Vitro Efficacy Optimization to In Vivo Proof‐of‐Principle” (Advanced Science, 2023).

Key:
PA14 biofilm = assay: Biofilm-eradication assay with tobramycin (Calgary biofilm device); assay type: cell-based, Pseudomonas aeruginosa
Experimental: MA, USA) instrument parameters: Spray voltage 3500 V, vaporizer temperature 370 °C, sheath gas pressure 35 psi, aux gas pressure 30 psi, capillary temperature 270 °C, collision pressure 1.5 mTorr, positive ionization mode. For AQ analyte reaction monitoring parameters please see Table S1.
Table S1. LC-ESI-MS/MS reaction monitoring parameters of AQ analytes in positive ionization mode. precursor product ion collision tube lens retention ion m/z m/z energy (V) offset (V) time (min)
1.2.4 Biofilm-formation assay
Biofilm formation was determined using a MBEC Assay® Biofilm Inoculator with 96-well base (Innvotech, Edmonton, CA). An overnight culture of PA14 was centrifuged (10 min, 5000 x g). The supernatant including extracellular polymers was removed and the pellet washed with 10 mL of LB medium. Centrifugation was repeated, the supernatant discarded, and the pellet resuspended in 5 mL of LB. OD was adjusted to 0.2. The bacteria were further diluted in LB medium, followed by addition of the target compound or DMSO control to give OD 0.1 and 1% DMSO. 150 µL were added to each well of the 96-well plate. The outer wells were used as blanks containing 150 µL of 1% DMSO in LB. Six replicates per sample were distributed evenly across the plate, with every row containing one replicate of each sample. The well plate was covered with the peg lid. One layer of parafilm was wrapped around the biofilm inoculator. The inoculator was incubated at 37 °C, static for 24 h with a beaker of H2O ensuring humidity. Alternatively, the plate was incubated using only LB for 8 h prior to addition of DMSO/24 to give 1% DMSO, followed by another 16 h incubation under the same […]
After 24 h, the plate was removed from the incubator and the peg lid was transferred to a fresh 96 well plate (Nunc U bottom, Thermo Fisher, Dreieich, Germany) containing the respective target […]
compound, 150 µL 1% DMSO in LB. The inoculator was wrapped with parafilm again and incubated for another 24 h. […]
Statistical outliers were determined using the Nalimov test, applying a 95% cut-off. […]

[1] = In vivo PK study, intratracheal (IT) and intravenous (IV); settings: for Tmax / CL/F / Vd/F / half-life: male, CD1, mouse; for Cl/F_obs / Vz/F_obs: […] IV
Experimental: The enzymatic activity of the MLM
First, a calibration curve was prepared by […]
lavage fluid (BALF). Caffeine was used as
The in live part for the IV and IT PK studies were performed at CRO Saretius (UK). Groups of male CD1 […]
light/dark cycle with free access to food and water. Temperature and humidity were controlled according to U.K. HO regulations. On the day of the study, mice were briefly anesthetized with isoflurane before suspending the mouse by its upper incisors on a board held at an angle of approx.
45 degrees. Mice were then dosed intratracheally with the compound (24 or Tob) at the designated does formulated in ethanol/tyloxapol/glycerol/phosphate-buffered saline (PBS) [10:1:5:84] in a 1 mL/kg dosing volume up to a maximum of 30 µL per mouse. A laryngoscope was used to facilitate dosing. Animals were allowed to recover before replacing into their home cages. Terminal blood samples were then taken from groups of 3 mice at each of eight time points post-dose by cardiac puncture under CO2. Blood samples were placed in tubes on ice containing EDTA anticoagulant. After gentle mixing, samples were centrifuged (10,000 rpm x 3 min) and two 50 μL aliquots taken into fresh tubes that were immediately frozen on dry ice. Following blood sample collection, tracheas were exposed and a small incision made. An 18 Gauge plastic tube was then inserted through the incision into the trachea and tied in place. Aliquots of 0.8 mL of sterile saline were then infused into and then withdrawn from the lungs and the collected bronchoalveolar lavage (BALF) sample placed into a tube. This process was repeated two more times, and the samples from each mouse pooled. […]
frozen by immersion in liquid nitrogen.

[2] = epithelial lining fluid, iv, ELF Tmax

Row | Compound | Potentiation of tobramycin activity on biofilm (PA14 biofilm; 0.1 × 10^−6 M 24 plus tobramycin 0.5 µg mL^−1, p = 0.21) | CFU reduction of combination treatment compared to single treatment with the antibiotic (PA14 biofilm; 1 and 10 × 10^−6 M 24 plus tobramycin 0.5 µg mL^−1) [fold] | Tmax [1, 2] [min] | CL/F ([1]; in vivo, inhaled or intranasal) [mL/min/kg] | Vd/F ([1]; in vivo, inhaled or intranasal) [L/kg] | half-life ([1]; in vivo, inhaled or intranasal) [min] | Tmax ([1]; in vivo, inhaled or intranasal, ELF Tmax) [min] | Tmax ([1]; in vivo, inhaled or intranasal, Lung Tmax) [min] | Tmax ([1]; in vivo, inhaled or intranasal, Tmax) [min] | Tmax ([1]; lung tissue, iv, Lung Tmax) [min] | half-life ([1]; plasma, iv) [min] | Cl/F_obs ([1]; plasma) [mL/min/kg] | Vz/F_obs ([1]; plasma) [L/kg] | Effect of tobramycin alone on untreated biofilms (CFU) (PA14 biofilm; tobramycin 0.5 µg mL^−1, 24 h treatment, p = 0.03) | Tmax ([1]; epithelial lining fluid, inhaled or intranasal, ELF Tmax, […] IT) [min] | Tmax ([1]; lung, inhaled or intranasal, Lung Tmax, lung tissue, […] IT) [min] | CL/F ([1]; plasma, inhaled or intranasal) [mL/min/kg] | Vd/F ([1]; plasma, inhaled or intranasal) [L/kg] | half-life ([1]; plasma, inhaled or intranasal) [min] | Tmax ([1]; plasma, inhaled or intranasal, Tmax, […] IT) [min]
1 | CC(C)Oc1ccc(-c2ncc(CNc3ccnc(C(F)(F)F)c3)cn2)cc1Cl [Compound 24] | not sufficient | > 3 | 40.2 ± 54 | 0.8 ± 0.1 | 0.06 | 48.6 | 30 | 40.2 ± 18 | 40.2 ± 18 | 4.8 | 63 ± 6 | 0.21 ± 0.0 | 0.02 ± 0.0 |  |  |  |  |  |  | 
2 | NC[C@H]1O[C@H](O[C@H]2[C@H](O)[C@@H](O[C@H]3O[C@H](CO)[C@@H](O)[C@H](N)[C@H]3O)[C@H](N)C[C@@H]2N)[C@H](N)C[C@@H]1O [Tobramycin, tobramycin] |  |  | 8.4 ± 6 |  |  |  |  |  |  |  | 15 ± 6 | 27.99 ± 1.8 | 0.60 ± 0.2 | only minor effects | 40.2 ± 18 | 49.8 ± 18 | 15.2 ± 8 | 1.02 ± 0.4 | 48.6 ± 12 | 40.2 ± 18
